As a reminder, the Km is the concentration of substrate that gives half-maximal velocity.

The structures appear in SMILES notation.

In the assay the test system is T1, Sub1.
T1 construct: signal peptide removed; pET-30a(+) NcoI/XhoI, His6-tagged (tag kept), expressed in E. coli SHuffle T7
The assay is described as follows: spectrophotometric p-nitrophenol release at […] nm, Michaelis-Menten fit. The class given is biochemical, Streptomyces scabiei. The following applies: Tris-HCl 20 mM, pH 7.5, room temperature; Triton X-100 (0.5%) apparently present.

Take `CCCC(=O)Oc1ccc([N+](=O)[O-])cc1` [p-nitrophenyl butyrate]: the Km was 570 ± 40 µM.

For the origin of these results see paper PMC7104285, “Enzymatic Degradation of p-Nitrophenyl Esters, Polyethylene Terephthalate, Cutin, and Suberin by Sub1, a Suberinase Encoded by the Plant Pathogen Streptomyces scabies” (Microbes and Environments, 2020).
